# Results as given in US20250115595A1, “INHIBITORS OF HYPOXIA-INDUCIBLE FACTORS” (The Johns Hopkins University, priority 2021, published 2025).
# Test system: HIF target genes
# Test: RT-qPCR of HIF target gene expression in Hep3B cells
# Format: cell-based, human
# Description: Based on hit compound 11-88, a number of analogs were prepared in which either halogen substitutions to the indole groups were altered or the central thiazole was replaced by imidazole, isoxazole, oxadiazole, oxazole, pyrazinone, pyridazine, pyrazine, pyrazole, pyridine, thiadiazole, triazine, or triazole. […] The bis-bromoindole thiazole 32-134D and the bis-indole thiadiazole 33-063 (FIGS. 1B and 1C) were further characterized with respect to endogenous HIF target gene expression in Hep3B cells. […] For comparison, we tested the effect of PT2385, which inhibited EPO, NDRG1, ANGPTL4, and VEGFA expression but had no effect on CA9, which is consistent with its HIF-2-selective mechanism of action (Wallace E M et al., Cancer Res. 2016; 76(18):5491-5500). None of the compounds had any effect on RPL13A expression, which is neither hypoxia-induced nor HIF-regulated (FIG. 3).
# Human Hep3B and mouse Hepa1-6 cells were purchased from ATCC and grown in high-glucose (4.5 mg/ml) Dulbecco's modified Eagle's medium supplemented with 10% (vol/vol) fetal bovine serum and […] at 37° C. in a 5% CO2/95% air incubator (20% O2). Human cell line identity was authenticated by analysis of short tandem repeats, and all cell lines were maintained mycoplasma free, using PCR-based assays conducted at the Johns Hopkins University Genetic Resources Core Facility. Cells were subjected to hypoxia in a controlled atmosphere chamber (PLAS Labs) with ambient gas mixture containing 1% O2 and 5% CO2.
# RNA was extracted using TRIzol Reagent (ThermoFisher). Quantitative Real-time PCR was conducted using SYBR Green PCR Master Mix (BioRad) and reactions were run using the BioRad thermal cycler (BioRad). The mRNA expression of target genes was normalized to the expression of 18S rRNA and the fold change (FC) was calculated based on the threshold cycle (Ct) as
# FC=2^−Δ(ΔCt) where ΔCt=Cttarget gene−Ct18S rRNA and Δ(ΔCt)=ΔCttreatment−ΔCtcontrol.
structure (smiles),measurement,value
"Brc1ccc2c(-c3csc(-c4c[nH]c5c(Br)cccc45)n3)c[nH]c2c1 [Compound 32-134D, 4-(6-bromo-1H-indol-3-yl)-2-(7-bromo-1H-indol-3-yl)thiazole]","hypoxia-induced expression of HIF target genes CA9, ANGPTL4, VEGFA, NDRG1 and EPO",inhibited
